Experimental findings from ChEMBL document CHEMBL1201862, “PubChem BioAssay data set” (2004) are described below.

Experiment [1] concerns the target T1, Potassium voltage-gated channel subfamily KQT member 2 (Rattus norvegicus, UniProt O88943). The experiment in a line: Mode of action assay - current amplitude concentration response for derivatives of ZTZ240, a potentiator of KCNQ2 potassium channels. [Related pubchem assays: 2258 (Summary assay for the KCNQ2 potentiators.), 2239 (Primary HTS assay for KCNQ2 potentiators with 305606 compounds tested, and 1644 are found to be active.)]. It is filed as functional.

The target in experiment [2] is T1, Potassium voltage-gated channel subfamily KQT member 2. Description: Mode of action - deactivation constant concentration response for ztz240, a potentiator of KCNQ2 potassium channels. [Related pubchem assays: 2258 (Summary assay for the KCNQ2 potentiators.), 2239 (Primary HTS assay for KCNQ2 potentiators with 305606 compounds tested, and 1644 are found to be active.)]. It is filed as functional.

Experiment [3] concerns HEK293. The experiment in a line: Fluorescence-based counterscreen for potentiators or agonists of NPY-Y2: cell-based high-throughput dose response assay to identify inhibitors of cyclic nucleotide gated ion channel (CNGC) activity. In this assay, the parental HEK293 cell line transfected with a cyclic-nucleotide gated ion channel (CNGC)-based cAMP sensor is used to measure inhibition of isoproterenol-induced CNGC activity by test compound. The settings on record: Homo sapiens. The experiment is classed as functional.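 Further: stimulus is 1 µM isoproterenol at EC100 plus PDE inhibitor Ro 20-1724 at 25 µM.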

Experiment [4] deals with Neuropeptide Y receptor type 2 (Homo sapiens, UniProt P49146). Description: Fluorescence-based cell-based high-throughput dose response assay for agonists of NPY-Y2. [Related pubchem assays: 1703 (Screening assay (CNGC inhibitors).), 1359 (Screening assay (NPY-Y2 potentiators or agonists).), 1304 (Screening assay (NPY-Y1 potentiators or agonists).), 1710 (Screening assay (NPY-Y2 agonists).), 1791 (Summary AID.)]. The experiment is classed as functional.

In experiment [5] the target is Neuropeptide Y receptor type 1 (Homo sapiens, UniProt P25929). The experiment in a line: Fluorescence-based counterscreen for agonists of NPY-Y2: cell-based high-throughput dose response assay for agonists of NPY-Y1. The experiment is classed as functional.
A short description of experiment [6]: HIV-1 Env-mediated cell fusion inhibitors, dose response, CCR5-tropic Env (AID 2279). It is filed as functional.
The target in experiment [7] is T2, Leucine aminopeptidase (Plasmodium falciparum 3D7, UniProt Q8IL11).
T2 sequence (Q8IL11 whole entry): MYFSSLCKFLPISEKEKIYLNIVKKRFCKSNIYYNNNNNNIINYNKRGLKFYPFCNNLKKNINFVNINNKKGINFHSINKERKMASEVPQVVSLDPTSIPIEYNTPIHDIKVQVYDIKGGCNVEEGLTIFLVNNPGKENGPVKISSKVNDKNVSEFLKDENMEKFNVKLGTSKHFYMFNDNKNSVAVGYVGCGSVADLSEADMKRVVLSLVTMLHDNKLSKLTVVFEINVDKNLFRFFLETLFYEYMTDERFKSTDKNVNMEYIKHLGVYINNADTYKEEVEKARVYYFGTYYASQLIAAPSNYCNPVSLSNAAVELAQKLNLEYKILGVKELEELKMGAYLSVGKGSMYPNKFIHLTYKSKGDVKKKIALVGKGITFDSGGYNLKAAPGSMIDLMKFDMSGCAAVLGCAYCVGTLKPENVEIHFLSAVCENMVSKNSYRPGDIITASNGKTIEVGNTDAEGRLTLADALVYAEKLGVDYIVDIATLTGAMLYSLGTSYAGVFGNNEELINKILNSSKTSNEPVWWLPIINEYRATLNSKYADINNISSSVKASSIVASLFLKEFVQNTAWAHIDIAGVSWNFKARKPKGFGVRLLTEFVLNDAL
The experiment in a line: P. falciparum M17LAP inhibitors, primary screen, biochemical, fluorogenic H-Leu-NHMec substrate, 1536-well (AID 1619). It is filed as functional.

The nature of experiment [8]: enhancers of respiration in Yfh1-depleted yeast, dose response, Friedreich's ataxia, plus single-dose screen (AID 1465).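 Further: yeast depleted of Yfh1p frataxin homolog grown on glycerol needing respiration; WST-1 tetrazolium dye reduction as measure of cellular dehydrogenase metabolic activity.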 The experiment is classed as functional.
Experiment [9] concerns Streptococcus. Description: Luminescence Microorganism-Based Dose Response Follow up to Identify Compounds Cytotoxic to Streptococcus. [Related pubchem assays: 1677 (Project Summary), 1915, 1914, 1902 (Retest at Dose), 1900 (Counter Screen), 1662 (Primary HTS)]. The experiment is classed as functional, organism-based.
Experiment [10] has as its target Peroxisome proliferator-activated receptor gamma/Nuclear receptor coactivator 2 (Homo sapiens, UniProt P37231). It is filed as functional.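 Further: agonist potency for raising coactivator recruitment to the receptor.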
In experiment [11] the target is Peroxisome proliferator-activated receptor gamma/Nuclear receptor coactivator 1 (Homo sapiens, UniProt P37231). The experiment is classed as functional.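 Further: agonist potency as compounds enhance coactivator SRC-1 recruitment to PPARgamma.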
The target in experiment [12] is Peroxisome proliferator-activated receptor gamma/Nuclear receptor coactivator 3 (Homo sapiens, UniProt P37231). The experiment is classed as functional.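 Further: agonist potency for raising coactivator recruitment to the receptor.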
Experiment [13] addresses Cytochrome P450 2D6 (Homo sapiens, UniProt P10635). The experiment in a line: qHTS Assay for Inhibitors and Substrates of Cytochrome P450 2D6. [Related pubchem assays: 410 ]. It is filed as ADME. The settings on record: read-out: Potency.
For experiment [14], the target named is T3, Alkaline phosphatase, tissue-nonspecific isozyme (Homo sapiens, UniProt P05186).
T3 sequence (P05186 whole entry): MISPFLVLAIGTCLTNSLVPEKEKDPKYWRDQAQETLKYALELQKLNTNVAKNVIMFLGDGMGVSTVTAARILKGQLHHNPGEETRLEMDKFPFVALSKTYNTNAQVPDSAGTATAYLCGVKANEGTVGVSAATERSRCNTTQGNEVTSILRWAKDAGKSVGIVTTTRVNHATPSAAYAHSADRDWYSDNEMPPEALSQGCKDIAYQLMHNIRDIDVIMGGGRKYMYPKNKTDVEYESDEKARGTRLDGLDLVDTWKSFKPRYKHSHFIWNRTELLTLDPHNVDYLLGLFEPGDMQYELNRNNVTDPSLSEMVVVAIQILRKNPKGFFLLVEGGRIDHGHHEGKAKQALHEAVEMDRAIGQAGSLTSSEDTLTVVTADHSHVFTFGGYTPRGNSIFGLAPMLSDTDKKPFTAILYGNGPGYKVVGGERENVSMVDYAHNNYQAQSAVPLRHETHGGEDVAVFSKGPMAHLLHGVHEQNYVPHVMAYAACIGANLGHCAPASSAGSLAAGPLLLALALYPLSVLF

The target of experiment [15] is Aspartyl aminopeptidase (Plasmodium falciparum 3D7, UniProt Q8I2J3).
Experiment [16] deals with Procathepsin L (Homo sapiens, UniProt P07711).
For experiment [17], the target named is Ras and Rab interactor 1/Tyrosine-protein kinase ABL1 (Homo sapiens, UniProt P00519+Q13671). The experiment is classed as functional.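 Further: biochemical TR-FRET dose-response test measuring inhibition of binding between Rin1 and Abl proteins.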
Experiment [18] deals with T4, Histone-lysine N-methyltransferase NSD2 (Homo sapiens, UniProt O96028).
T4 sequence (O96028 whole entry): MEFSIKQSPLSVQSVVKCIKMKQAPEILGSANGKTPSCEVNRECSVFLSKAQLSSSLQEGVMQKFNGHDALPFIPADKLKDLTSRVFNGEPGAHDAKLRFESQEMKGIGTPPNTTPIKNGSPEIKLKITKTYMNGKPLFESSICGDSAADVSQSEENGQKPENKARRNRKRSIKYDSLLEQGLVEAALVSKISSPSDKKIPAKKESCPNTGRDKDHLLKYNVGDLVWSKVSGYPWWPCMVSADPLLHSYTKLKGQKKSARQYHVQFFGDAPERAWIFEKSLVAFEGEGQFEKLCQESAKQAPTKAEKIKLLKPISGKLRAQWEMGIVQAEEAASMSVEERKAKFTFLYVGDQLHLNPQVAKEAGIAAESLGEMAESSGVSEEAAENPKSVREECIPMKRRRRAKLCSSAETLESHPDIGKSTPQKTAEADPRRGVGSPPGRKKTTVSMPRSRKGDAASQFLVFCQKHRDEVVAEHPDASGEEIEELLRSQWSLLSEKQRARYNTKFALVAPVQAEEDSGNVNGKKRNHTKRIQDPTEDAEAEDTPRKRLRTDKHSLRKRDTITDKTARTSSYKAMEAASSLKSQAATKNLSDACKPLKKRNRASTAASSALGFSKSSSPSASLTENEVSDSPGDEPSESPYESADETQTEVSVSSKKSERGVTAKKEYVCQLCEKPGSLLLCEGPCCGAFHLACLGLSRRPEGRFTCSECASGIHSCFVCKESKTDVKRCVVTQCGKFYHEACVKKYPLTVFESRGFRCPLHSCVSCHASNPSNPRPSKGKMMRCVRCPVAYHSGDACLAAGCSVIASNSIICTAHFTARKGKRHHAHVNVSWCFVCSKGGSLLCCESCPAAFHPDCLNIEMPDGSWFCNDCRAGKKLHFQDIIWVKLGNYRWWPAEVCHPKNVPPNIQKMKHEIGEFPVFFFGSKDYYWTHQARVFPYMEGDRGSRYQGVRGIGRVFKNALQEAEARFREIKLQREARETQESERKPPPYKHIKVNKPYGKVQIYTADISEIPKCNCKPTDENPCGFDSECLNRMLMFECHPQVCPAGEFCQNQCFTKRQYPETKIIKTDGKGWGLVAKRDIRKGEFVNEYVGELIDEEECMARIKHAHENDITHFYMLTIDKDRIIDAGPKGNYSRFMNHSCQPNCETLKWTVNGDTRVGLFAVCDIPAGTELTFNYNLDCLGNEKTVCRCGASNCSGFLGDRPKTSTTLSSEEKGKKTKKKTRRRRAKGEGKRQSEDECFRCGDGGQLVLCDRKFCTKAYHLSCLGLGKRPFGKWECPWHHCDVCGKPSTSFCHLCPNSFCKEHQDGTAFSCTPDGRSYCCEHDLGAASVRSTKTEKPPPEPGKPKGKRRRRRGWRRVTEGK
It is filed as biochemical.

Experiment [19] deals with T5, Protein Tat (Human immunodeficiency virus type 1 group M subtype B (isolate HXB2)(HIV-1), UniProt P04608).
T5 sequence (P04608 whole entry): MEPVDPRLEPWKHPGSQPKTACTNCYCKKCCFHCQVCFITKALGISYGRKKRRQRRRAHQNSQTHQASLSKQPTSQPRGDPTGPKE
It is filed as functional.

The nature of experiment [20]: cells.

Each structure is given as a SMILES string. Active and inactive are the calls of the source.

T1 sequence (O88943 whole entry): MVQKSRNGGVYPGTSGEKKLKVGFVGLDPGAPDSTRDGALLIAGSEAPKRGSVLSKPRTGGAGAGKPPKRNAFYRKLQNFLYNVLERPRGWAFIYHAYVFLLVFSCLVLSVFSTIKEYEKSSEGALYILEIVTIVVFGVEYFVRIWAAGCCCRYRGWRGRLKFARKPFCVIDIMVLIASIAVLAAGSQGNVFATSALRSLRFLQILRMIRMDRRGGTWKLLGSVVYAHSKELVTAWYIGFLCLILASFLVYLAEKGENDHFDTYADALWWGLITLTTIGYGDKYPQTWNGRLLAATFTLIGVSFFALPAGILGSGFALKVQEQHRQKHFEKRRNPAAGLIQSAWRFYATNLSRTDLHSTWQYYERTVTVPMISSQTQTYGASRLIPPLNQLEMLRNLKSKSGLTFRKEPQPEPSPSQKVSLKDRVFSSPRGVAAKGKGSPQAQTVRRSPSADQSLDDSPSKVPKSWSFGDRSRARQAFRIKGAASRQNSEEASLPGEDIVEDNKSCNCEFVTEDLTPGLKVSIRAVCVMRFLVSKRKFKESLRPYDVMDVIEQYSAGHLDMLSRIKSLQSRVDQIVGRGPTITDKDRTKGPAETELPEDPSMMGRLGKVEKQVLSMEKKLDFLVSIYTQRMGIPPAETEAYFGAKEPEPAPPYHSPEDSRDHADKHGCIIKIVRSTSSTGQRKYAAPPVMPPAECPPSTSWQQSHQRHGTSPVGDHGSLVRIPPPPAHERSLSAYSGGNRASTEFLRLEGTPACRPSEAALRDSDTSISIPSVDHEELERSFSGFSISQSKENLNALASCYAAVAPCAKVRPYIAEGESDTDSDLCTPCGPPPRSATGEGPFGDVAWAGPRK
Sequence of Procathepsin L (P07711 whole entry): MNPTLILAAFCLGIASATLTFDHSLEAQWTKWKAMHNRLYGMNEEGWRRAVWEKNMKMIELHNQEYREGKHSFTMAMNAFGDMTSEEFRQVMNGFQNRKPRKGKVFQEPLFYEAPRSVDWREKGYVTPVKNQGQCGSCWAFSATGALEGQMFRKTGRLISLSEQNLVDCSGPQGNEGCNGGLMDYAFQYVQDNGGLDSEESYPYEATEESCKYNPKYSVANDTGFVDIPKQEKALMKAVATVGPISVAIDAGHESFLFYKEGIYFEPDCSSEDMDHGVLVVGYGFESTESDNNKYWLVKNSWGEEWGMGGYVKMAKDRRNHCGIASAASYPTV
Sequence of Ras and Rab interactor 1/Tyrosine-protein kinase ABL1 (P00519 whole entry): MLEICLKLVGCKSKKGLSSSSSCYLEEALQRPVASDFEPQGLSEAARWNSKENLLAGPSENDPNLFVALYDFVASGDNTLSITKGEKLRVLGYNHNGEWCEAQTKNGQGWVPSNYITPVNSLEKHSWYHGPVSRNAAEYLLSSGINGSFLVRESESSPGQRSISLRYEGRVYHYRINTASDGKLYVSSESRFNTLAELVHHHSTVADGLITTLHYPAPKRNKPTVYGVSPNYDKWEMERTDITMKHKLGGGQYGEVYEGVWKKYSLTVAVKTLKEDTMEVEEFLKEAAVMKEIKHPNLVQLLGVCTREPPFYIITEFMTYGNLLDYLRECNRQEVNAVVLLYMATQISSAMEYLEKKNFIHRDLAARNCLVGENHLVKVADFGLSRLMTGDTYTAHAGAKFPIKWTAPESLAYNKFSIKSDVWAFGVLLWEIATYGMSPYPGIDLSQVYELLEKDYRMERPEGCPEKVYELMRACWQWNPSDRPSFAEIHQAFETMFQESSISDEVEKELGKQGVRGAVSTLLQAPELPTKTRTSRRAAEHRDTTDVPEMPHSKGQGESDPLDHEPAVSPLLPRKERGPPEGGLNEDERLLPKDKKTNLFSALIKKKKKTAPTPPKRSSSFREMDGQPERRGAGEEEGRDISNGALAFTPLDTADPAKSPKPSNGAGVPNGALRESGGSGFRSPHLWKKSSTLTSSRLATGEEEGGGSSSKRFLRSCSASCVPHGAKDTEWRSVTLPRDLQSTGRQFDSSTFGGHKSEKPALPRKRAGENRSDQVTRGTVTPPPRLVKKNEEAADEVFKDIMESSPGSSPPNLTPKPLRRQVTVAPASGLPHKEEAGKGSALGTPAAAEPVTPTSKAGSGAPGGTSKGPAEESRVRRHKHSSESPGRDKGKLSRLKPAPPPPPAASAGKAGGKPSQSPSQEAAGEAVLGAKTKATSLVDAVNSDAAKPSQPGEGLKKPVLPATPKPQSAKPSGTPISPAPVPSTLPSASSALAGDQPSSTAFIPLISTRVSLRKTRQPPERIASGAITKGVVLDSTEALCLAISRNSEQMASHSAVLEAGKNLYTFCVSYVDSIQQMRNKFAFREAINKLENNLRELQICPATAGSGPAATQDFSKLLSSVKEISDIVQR
Sequence of Ras and Rab interactor 1/Tyrosine-protein kinase ABL1 (Q13671 whole entry): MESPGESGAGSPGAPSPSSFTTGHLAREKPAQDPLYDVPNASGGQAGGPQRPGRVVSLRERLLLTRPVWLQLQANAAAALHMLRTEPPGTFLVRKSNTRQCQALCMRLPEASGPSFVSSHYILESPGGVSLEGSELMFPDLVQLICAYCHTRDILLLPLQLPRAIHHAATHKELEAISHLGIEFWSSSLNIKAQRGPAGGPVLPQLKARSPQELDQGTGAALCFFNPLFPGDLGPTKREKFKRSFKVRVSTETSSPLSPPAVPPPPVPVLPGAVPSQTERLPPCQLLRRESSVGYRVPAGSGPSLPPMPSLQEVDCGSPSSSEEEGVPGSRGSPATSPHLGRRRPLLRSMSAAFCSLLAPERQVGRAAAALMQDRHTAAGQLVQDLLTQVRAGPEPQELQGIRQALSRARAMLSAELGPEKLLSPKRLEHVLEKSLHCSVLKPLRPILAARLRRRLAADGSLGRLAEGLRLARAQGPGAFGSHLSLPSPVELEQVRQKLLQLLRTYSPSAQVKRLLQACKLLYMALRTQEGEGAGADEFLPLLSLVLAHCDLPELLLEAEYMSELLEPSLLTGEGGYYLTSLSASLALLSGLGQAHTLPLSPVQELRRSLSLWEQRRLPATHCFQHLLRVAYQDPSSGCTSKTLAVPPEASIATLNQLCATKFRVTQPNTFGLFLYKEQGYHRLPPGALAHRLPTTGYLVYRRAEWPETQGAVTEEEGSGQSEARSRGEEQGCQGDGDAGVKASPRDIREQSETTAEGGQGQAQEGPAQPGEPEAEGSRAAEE
Sequence of Neuropeptide Y receptor type 2 (P49146 whole entry): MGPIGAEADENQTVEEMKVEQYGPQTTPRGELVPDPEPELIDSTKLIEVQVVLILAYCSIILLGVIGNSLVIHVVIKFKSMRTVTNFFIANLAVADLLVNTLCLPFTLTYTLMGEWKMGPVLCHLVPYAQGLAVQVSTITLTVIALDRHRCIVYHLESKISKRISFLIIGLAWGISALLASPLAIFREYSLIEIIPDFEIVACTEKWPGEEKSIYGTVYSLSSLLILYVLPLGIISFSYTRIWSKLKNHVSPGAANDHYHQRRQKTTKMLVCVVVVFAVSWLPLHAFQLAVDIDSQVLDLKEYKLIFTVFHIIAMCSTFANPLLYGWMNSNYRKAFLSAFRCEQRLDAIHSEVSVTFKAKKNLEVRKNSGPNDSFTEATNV
Sequence of Neuropeptide Y receptor type 1 (P25929 whole entry, the tested form may be a part): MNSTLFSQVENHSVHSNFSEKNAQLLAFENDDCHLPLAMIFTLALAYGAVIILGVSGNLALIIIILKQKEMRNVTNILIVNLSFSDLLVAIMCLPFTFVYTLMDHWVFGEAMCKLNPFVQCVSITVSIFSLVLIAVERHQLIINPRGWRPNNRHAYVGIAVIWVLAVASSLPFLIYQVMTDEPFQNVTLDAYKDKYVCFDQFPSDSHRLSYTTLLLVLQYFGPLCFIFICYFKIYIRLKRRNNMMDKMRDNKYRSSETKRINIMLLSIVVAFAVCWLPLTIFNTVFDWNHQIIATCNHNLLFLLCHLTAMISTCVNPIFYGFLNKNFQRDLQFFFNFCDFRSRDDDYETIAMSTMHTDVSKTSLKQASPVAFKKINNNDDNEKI
Sequence of Aspartyl aminopeptidase (Q8I2J3 whole entry): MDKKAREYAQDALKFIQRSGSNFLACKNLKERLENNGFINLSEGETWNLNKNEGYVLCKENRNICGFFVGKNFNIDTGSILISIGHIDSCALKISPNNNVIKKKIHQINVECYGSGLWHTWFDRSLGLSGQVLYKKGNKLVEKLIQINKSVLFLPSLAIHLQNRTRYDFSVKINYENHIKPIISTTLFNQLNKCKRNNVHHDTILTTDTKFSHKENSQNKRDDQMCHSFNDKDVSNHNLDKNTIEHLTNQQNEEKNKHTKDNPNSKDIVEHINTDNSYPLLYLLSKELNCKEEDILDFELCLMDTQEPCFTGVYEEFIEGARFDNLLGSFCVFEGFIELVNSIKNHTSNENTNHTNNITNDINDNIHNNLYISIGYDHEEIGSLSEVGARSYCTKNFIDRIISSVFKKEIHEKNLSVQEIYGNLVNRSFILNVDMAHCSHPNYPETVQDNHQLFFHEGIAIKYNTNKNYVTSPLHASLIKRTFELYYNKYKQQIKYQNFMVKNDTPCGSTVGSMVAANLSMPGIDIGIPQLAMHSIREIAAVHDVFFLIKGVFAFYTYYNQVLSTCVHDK
Sequence of Cytochrome P450 2D6 (P10635 whole entry): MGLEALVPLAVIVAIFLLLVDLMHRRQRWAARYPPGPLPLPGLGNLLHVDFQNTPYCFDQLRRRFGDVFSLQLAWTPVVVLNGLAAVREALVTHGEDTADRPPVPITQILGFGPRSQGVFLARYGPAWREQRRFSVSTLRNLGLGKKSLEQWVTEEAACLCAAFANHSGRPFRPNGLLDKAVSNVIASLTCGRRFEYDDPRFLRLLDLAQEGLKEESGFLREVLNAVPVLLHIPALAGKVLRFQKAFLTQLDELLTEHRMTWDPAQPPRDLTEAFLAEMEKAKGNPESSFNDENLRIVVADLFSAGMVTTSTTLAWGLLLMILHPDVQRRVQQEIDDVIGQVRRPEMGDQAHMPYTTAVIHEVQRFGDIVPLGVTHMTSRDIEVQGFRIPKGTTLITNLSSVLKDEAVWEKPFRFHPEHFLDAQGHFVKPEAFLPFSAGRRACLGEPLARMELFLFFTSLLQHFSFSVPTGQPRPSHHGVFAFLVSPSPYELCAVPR

Consider `O=C(Nc1ccc(Cl)nc1)c1ccc(F)cc1`, for which the EC50 was 1.46 µM (active) in experiment [1] and 5.9 µM (active) in experiment [2].
In the case of `O=C(N/N=C/c1ccc(OC(F)F)cc1)c1cccc(S(=O)(=O)N2CCOCC2)c1`, the EC50 in experiment [3], in [4] and in [5] was > 35.4 µM (not active) in each case.
As to `O=C1/C(=C\c2ccc(O)c(O)c2)C(c2ccccc2)=NN1c1ccccc1`, the concentration for half-maximal inhibition (IC50) in [6] is 27.1 µM (active).
On to `N#C/C(=C/c1ccc(N2CCOCC2)o1)C(=O)NC1CCCCC1`, for which, in experiment [7], the IC50 is 109 µM (active). In addition, in experiment [8], the EC50 is > 100 µM (active).
Take `Cc1ccc(C(=O)N2c3ccccc3Sc3ccccc32)cc1`: in experiment [9], the half-maximal effective concentration (EC50) was > 500 µM (not active).
Take `CCOC(=O)c1c(C)[nH]c(C(=O)COC(=O)CNC(=O)C2CCCCC2)c1C`: the concentration for a half-maximal effect (EC50) in [10], in experiment [11] and in experiment [12] was > 79.4 µM (not active) in each case.
`CC12C=C(/C=C/CCc3ccco3)C(C)(C1)C(CCc1ccco1)CC2=O` (stereo not given): in experiment [13], the AC50 was 6.31 µM (inconclusive).
As for `Cc1ccc(C)n1-c1ccc(C(=O)NN)s1`, the EC50 in experiment [14] was > 100 µM (not active).
Turning to `O=C(/C=C/c1ccc(O)c(O)c1)OC1C(O)CC(OC(=O)/C=C/c2ccc(O)c(O)c2)(C(=O)O)CC1O` (stereo not given), the 50% inhibitory concentration (IC50) is 1.94 µM (active) in experiment [15]; > 59.6 µM (not active) in experiment [16]; 18.9 µM (inactive) in [17]; 85.2 µM (inconclusive) in experiment [19]; 31.9 µM (active) in experiment [20]. Further, in [18], the AC50 was 5.43 µM (active).
